Results from US9050301B2, “Pharmaceutical composition for treatment of corneal endothelial wounds containing angiogenin” (Chung-Ang University Industry-Academy Cooperation Foundation, priority 2013, dated 2015).

Legend:
[1] = test system: human corneal endothelial cells; assay: In vitro scratch wound healing of cultured human corneal endothelial cells; type: cell-based; conditions: for Wound healing index compared with the control group: 6 and 24 hours, angiogenin 5 μg/ml, Y-27632 10 μM
Protocol: A corneal endothelial tissue segment obtained from remaining corneal portions other than the central 8 mm corneal portion in cadaveric cornea donated for transplantation and a corneal endothelial tissue segment of a normal rabbit were cultured. Then, each of the corneal tissues was divided into 6 pieces and washed by shaking 6 times in a petri dish to which 7 ml of 5% penicillin/streptomycin (P/S) was added. Then, the washed tissues were each transferred to a 6-well dish such that the endothelial layer was facing down, and the tissues were semi-dried until the dishes were slightly drained. […]
Experiments have been carried to identify angiogenin effects on migration and proliferation of the corneal endothelial cells. […] At every 0 hour, 12 hours, 24 hours, and 48 hours, digital images of the remaining wounded areas were obtained at 40× magnification of the optical microscope, and measured in pixels by using the Image J software. […] At every 6 hours and 24 hours, the wounded areas were measured by using the Image J software. The ratio of initial wounded area versus recovered area was defined as wound healing index, which is calculated as shown below. […]
Experiments have been carried to identify optimal concentration of angiogenin to improve in vitro migration and proliferation improvement of the cultured human corneal endothelial cells. […] At every 0 hour, 12 hours, 24 hours, and 48 hours, the wounded areas were measured by using the Image J software. […]

[2] = test system: rabbit corneal endothelium; assay: Central corneal thickness by ultrasonic pachymeter after trans-corneal freezing damage; type: in vivo
Protocol: 30 eyeballs of 15 healthy white New Zealand rabbits weighing about 2.0 kg to about 3.0 kg without external opacification were anesthetized by intramuscular injection with 12.5 mg/kg of tiletamine/zolazepam (Zoletil®, VirbacLab, France) and 12.5 mg/kg of zylazine (Rompun®, BayerKorea, Korea). Afterwards, 0.5% povidone-iodine was used for disinfection of the whole range of experimental sight. Referring to FIG. 1, an 8 mm-diameter stainless steel rod as a probe was immersed in liquid nitrogen for 3 minutes, removed therefrom once the temperature of the liquid nitrogen reached −196° C., and brought into contact to the central cornea for 15 seconds. Then, each of the eyeballs was washed with 10 cc of 0.9% saline solution. In order to prevent the occurrence of corneal infection, the rabbit corneas were given instillation of Levofloxacin (Cravit®, Santen, Japan) three times a day for 3 days after the damage was induced.
3 groups consisting of 10 eyeballs given instillation of angiogenin (200 μg/mL), 7 eyeballs given Y-27632 (10 mM) inhibitor of Rho-associated coiled-coil kinase (ROCK) pathway, and 7 eyeballs as a control group given phosphate-buffered solution (PBS) were each subjected to 50 μl of instillation at a time, and more particularly, 6 times a day for the first 2 days, and then, 4 times a day for the following 2 days, starting immediately after inducing freeze-damages to the trans-corneal endothelium. That is, the instillation was performed 20 times in total for 4 days.
After inducing freeze-damages to trans-corneal of all the eyeballs from the group given instillation of angiogenin, the group given instillation of Y-27632, and the control group, the central corneal thickness was measured 3 times by using an ultrasonic corneal pachymeter (POCKET-II, Quantel medical, Clemont-Ferrand, France) at every 48 hours (2nd day), 72 hours (3rd day), 144 hours (6th day), and 192 hours (8th day), thereby calculating a mean value thereof. Here, the maximum measurable value of the ultrasonic corneal pachymeter was referred to 1,000 μm so the maximum corneal thickness was also considered as 1,000 μm.

[3] = 48 h after freeze damage, maximum measurable value 1,000 μm
[4] = 72 h after freeze damage, maximum measurable value 1,000 μm
[5] = 144 h after freeze damage, angiogenin 200 μg/mL, Y-27632 10 mM instillation, mean ± SE
[6] = 192 h after freeze damage, angiogenin 200 μg/mL, Y-27632 10 mM instillation, mean ± SE

Compound	Angiogenin concentration giving the highest wound healing index ([1]; 1, 2, 5 and 10 μg/ml tested, 0, 12, 24, 48 hours)	Wound healing index compared with the control group [1]	Central corneal thickness ([2]; 0 h (baseline), mean ± SE)	Central corneal thickness [2, 3]	Central corneal thickness [2, 4]	Central corneal thickness [2, 5]	Central corneal thickness ([2]; 144 h after freeze damage, angiogenin 200 μg/mL, Y-27632 10 mM instillation, mean ± SE, listed as angiogenin)	Central corneal thickness [2, 6]	Central corneal thickness ([2]; 192 h after freeze damage, angiogenin 200 μg/mL, Y-27632 10 mM instillation, mean ± SE, listed as angiogenin)
Angiogenin: 14.4-kDa single chain protein of 123 amino acids, secreted protein capable of inducing angiogenesis	5 µg/mL	high wound healing index	350.4 ± 6.2 μm	>1,000 μm	>1,000 μm	503.0 ± 21.1 μm	about 503.0±21.07 μm	390.3 ± 10.5 μm	about 390.3±10.55 μm
C[C@@H](N)[C@H]1CC[C@H](C(=O)Nc2ccncc2)CC1 [Y-27632, reference compound]		high wound healing index	361.7 ± 3.4 μm	>1,000 μm	>1,000 μm	571.6 ± 43.0 μm		432.5 ± 332.2 μm	
